Patent publication US11976072B2, “Diacylglycerol kinase modulating compounds” (priority 2021, dated 2024)
Read-outs that look alike come from different tables or passages of the source.

How the values were obtained:
[1] = tested on: Jurkat NFκB-luciferase cells; experiment: Jurkat NFκB-Luciferase Assay; assay type: cell-based; settings: Homo sapiens
Procedure, shortened: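 Luminescence from One-Glo Ex, read 7 min post-addition, reports NFκB activation in Jurkat luciferase reporter cells. Cells, diluted to 1 million cells/ml in 10% FBS RPMI, were dispensed onto plates holding compound and washed, pre-bound antibody.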

human DGKα = human DGKα (Homo sapiens, UniProt P23743); experiment: DGKα Biochemical Activity Assay (ADP-Glo); settings: recombinant DGKα 1 nM, 100 μM ATP, 18:1 DAG/POPS/octylglucoside micelles, 1 hour at 25° C.; geometric mean; read-out: HTBS DGKa 1X ATP KM IC50;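 note: luminescent detection of ADP produced as DGKα phosphorylates DAG to phosphatidic acid, IC50 from four-parameter nonlinear curve fit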
Chain of human DGKα (P23743 whole entry): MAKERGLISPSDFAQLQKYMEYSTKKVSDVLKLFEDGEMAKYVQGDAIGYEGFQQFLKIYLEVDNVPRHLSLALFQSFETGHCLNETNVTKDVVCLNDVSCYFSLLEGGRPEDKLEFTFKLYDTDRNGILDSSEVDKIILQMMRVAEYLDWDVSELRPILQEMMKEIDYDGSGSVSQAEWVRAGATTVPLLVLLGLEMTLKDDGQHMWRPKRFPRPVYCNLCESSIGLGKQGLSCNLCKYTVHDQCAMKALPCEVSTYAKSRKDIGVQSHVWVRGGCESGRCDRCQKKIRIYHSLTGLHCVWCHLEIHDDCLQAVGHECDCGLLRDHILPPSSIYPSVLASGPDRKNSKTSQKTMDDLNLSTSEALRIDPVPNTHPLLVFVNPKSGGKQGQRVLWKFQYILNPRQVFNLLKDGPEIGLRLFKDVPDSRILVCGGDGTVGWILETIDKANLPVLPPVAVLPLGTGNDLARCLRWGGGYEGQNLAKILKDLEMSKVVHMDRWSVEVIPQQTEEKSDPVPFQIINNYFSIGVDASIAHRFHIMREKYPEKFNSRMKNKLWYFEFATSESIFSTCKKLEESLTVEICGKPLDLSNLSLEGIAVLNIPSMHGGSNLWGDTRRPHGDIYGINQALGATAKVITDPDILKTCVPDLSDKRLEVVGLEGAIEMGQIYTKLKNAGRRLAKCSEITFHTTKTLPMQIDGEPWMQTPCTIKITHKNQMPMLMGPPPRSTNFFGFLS
Description: Alternatively, the enzymatic activity of human DGKα was monitored in a biochemical assay in the presence or absence of compounds and using micelles containing 18:1 Diacylglycerol (DAG), 16:0-18:1 PS (POPS) and Octylglucoside as substrate. DGKα activity led to conversion of DAG and ATP to Phosphatidic Acid (PA) and ADP. Levels of ADP were monitored by bioluminescence using the ADP-Glo Kinase Assay (Promega) and were indicative of DGKα activity.
Recombinant DGKα (Carna Biosciences) in assay buffer (5 μL in 50 mM MOPS [3-(N-morpholino) propanesulfonic acid], pH 7.2; 0.0025% Triton X-100; 1 mM dithiothreitol; 5 mM MgCl2, 200 μM ATP) was added to the compound-containing plate and was incubated for 15 minutes at 25° C. […] The reaction mixture was incubated at 25° C. for 1 hour. ADP-Glo Reagent (10 μL, 10 mM Mg added) provided by the kit was added to each well and incubated at 25° C. for 40 minutes. Then, 20 μL of Kinase Detection Reagent was added and incubated at 25° C. for 40 minutes. Luciferase activity of each well was measured via luminescence on an Envision plate reader (PerkinElmer).
Least squares curve fittings were performed using a four-parameter variable slope nonlinear regression model. […] IC50 values from multiple experiments were averaged by geometric mean and the standard deviation was calculated.

[2] = Jurkat NFκB-luciferase cells activated with anti-CD3 antibody (OKT3), 2.5 hrs at 37° C., geometric mean, read-out: DGK NFKb Luciferase EC50
[3] = Jurkat, […], read-out: DGK NFKb Luciferase EC50 (nM)

Row | EC50 [1, 2] | IC50 (human DGKα) | Structure (SMILES) | EC50 [1, 3]
1 | 1.42 nM | 3.66 nM | Cc1nnc2nc(N3CCOCc4c(C#CC5(C(F)F)CC5)cccc43)c3c(F)cccc3n12 [Example 191, 6-[2-[1-(Difluoromethyl)cyclopropyl]ethynyl]-1-(6-fluoro-1-methyl-[1,2,4]triazolo[4,3-a]quinazolin-5-yl)-3,5-dihydro-2H-4,1-benzoxazepine] | –
2 | 0.892 nM | 54.9 nM | Cc1nnc2nc(N3CCCCc4c(C#CC5(C(F)(F)F)CC5)cccc43)c3c(F)cccc3n12 [Example 192] | –
3 | 0.871 nM | 2.85 nM | Cc1nnc2nc(N3CCCCc4c(C#CC5(C)COC5)cccc43)c3c(F)cccc3n12 [Example 193] | –
4 | 1.68 nM | 0.773 nM | Cc1nnc2nc(N3CCOCc4c(C#CC5(C)COC5)cccc43)c3c(F)cccc3n12 [Example 194, 1-(6-Fluoro-1-methyl-[1,2,4]triazolo[4,3-a]quinazolin-5-yl)-6-[2-(3-methyloxetan-3-yl)ethynyl]-3,5-dihydro-2H-4,1-benzoxazepine] | –
5 | 0.382 nM | 13.3 nM | CCC1(C#Cc2cccc3c2COCCN3c2nc3nnc(C)n3c3cccc(F)c23)CC1 [Example 195, 6-[2-(1-Ethylcyclopropyl)ethynyl]-1-(6-fluoro-1-methyl-[1,2,4]triazolo[4,3-a]quinazolin-5-yl)-3,5-dihydro-2H-4,1-benzoxazepine] | –
6 | 0.545 nM | 2.49 nM | Cc1nnc2nc(N3CCOCc4c(C#CC5(C)CC5)cccc43)c3c(F)c(F)ccc3n12 [Example 196, 1-(6,7-Difluoro-1-methyl-[1,2,4]triazolo[4,3-a]quinazolin-5-yl)-6-((1-methylcyclopropyl)ethynyl)-1,2,3,5-tetrahydrobenzo[e][1,4]oxazepine] | –
7 | 1.38 nM | 11 nM | Cc1nnc2nc(N3CCCc4c(C#CC5(O)CCC6(CC5)CC6)cccc43)c3c(F)cccc3n12 [Example 197] | –
8 | 0.858 nM | 5.18 nM | Cc1nnc2nc(N3CCOCc4c(C#CC5(C(C)(F)F)CC5)cccc43)c3c(F)c(F)ccc3n12 [Example 200, 6-[2-[1-(1,1-Difluoroethyl)cyclopropyl]ethynyl]-1-(6,7-difluoro-1-methyl-[1,2,4]triazolo[4,3-a]quinazolin-5-yl)-3,5-dihydro-2H-4,1-benzoxazepine] | –
9 | 0.202 nM | 6.77 nM | CC(F)(F)C1(C#Cc2cccc3c2COCCN3c2nc3nncn3c3ccc(F)c(F)c23)CC1 [Example 201, 6-[2-[1-(1,1-Difluoroethyl)cyclopropyl]ethynyl]-1-(6,7-difluoro-[1,2,4]triazolo[4,3-a]quinazolin-5-yl)-3,5-dihydro-2H-4,1-benzoxazepine] | –
10 | 0.307 nM | 2.1 nM | Fc1ccc2c(c(N3CCOCc4c(C#CC5(C(F)(F)F)CC5)cccc43)nc3nncn32)c1F [Example 203, 1-(6,7-Difluoro-[1,2,4]triazolo[4,3-a]quinazolin-5-yl)-6-[2-[1-(trifluoromethyl)cyclopropyl]ethynyl]-3,5-dihydro-2H-4,1-benzoxazepine] | –
11 | 0.121 nM | 3.83 nM | CC(C)(C#Cc1cccc2c1COCCN2c1nc2nncn2c2ccc(F)c(F)c12)C(F)(F)F [Example 204, 1-(6,7-Difluoro-[1,2,4]triazolo[4,3-a]quinazolin-5-yl)-6-(4,4,4-trifluoro-3,3-dimethyl-but-1-ynyl)-3,5-dihydro-2H-4,1-benzoxazepine] | –
12 | 16.6 nM | 13.9 nM | Cc1nnc2nc(N3CCCc4c(C#CC5(O)CCCC5)cccc43)c3c(F)cccc3n12 [Example 205, 1-((1-(6-fluoro-1-methyl-[1,2,4]triazolo[4,3-a]quinazolin-5-yl)-1,2,3,4-tetrahydroquinolin-5-yl)ethynyl)cyclopentan-1-ol] | –
13 | 4.04 nM | 14.9 nM | Cc1nnc2nc(N3CCOCc4c(C#CC(C)(C)C(F)(F)F)cccc43)c3c(F)c(F)ccc3n12 [Example 207, 1-(6,7-Difluoro-1-methyl-[1,2,4]triazolo[4,3-a]quinazolin-5-yl)-6-(4,4,4-trifluoro-3,3-dimethyl-but-1-ynyl)-3,5-dihydro-2H-4,1-benzoxazepine] | –
14 | 0.815 nM | 18.7 nM | CC(F)(F)C1(C#Cc2cccc3c2CCCCN3c2nc3nncn3c3ccc(F)c(F)c23)CC1 [Example 208, 5-(6-((1-(1,1-Difluoroethyl)cyclopropyl)ethynyl)-2,3,4,5-tetrahydro-1H-benzo[b]azepin-1-yl)-6,7-difluoro-[1,2,4]triazolo[4,3-a]quinazoline] | –
15 | 0.657 nM | 5.88 nM | Cc1nnc2nc(N3CCOCc4c(C#CC(C)(C)C(F)(F)F)cccc43)c3cc(F)ccc3n12 [Example 210] | –
16 | 56.1 nM | 6.35 nM | Cc1nnc2nc(N3CCOCc4c(C#Cc5cn[nH]c5)cccc43)c3c(F)cccc3n12 [Example 211, 6-((1H-pyrazol-4-yl)ethynyl)-1-(6-fluoro-1-methyl-[1,2,4]triazolo[4,3-a]quinazolin-5-yl)-1,2,3,5-tetrahydrobenzo[e][1,4]oxazepine] | –
17 | 9.7 nM | 18.6 nM | Cc1nnc2nc(N3CCCc4c(C#Cc5cn[nH]c5)cccc43)c3c(F)cccc3n12 [Example 212, 5-(5-((1H-pyrazol-4-yl)ethynyl)-3,4-dihydroquinolin-1(2H)-yl)-6-fluoro-1-methyl-[1,2,4]triazolo[4,3-a]quinazoline] | –
18 | 1.28 nM | 10 nM | Cc1nnc2nc(N3CCCc4c(C#Cc5ccc(C#N)nc5)cccc43)c3c(F)cccc3n12 [Example 213, 5-((1-(6-fluoro-1-methyl-[1,2,4]triazolo[4,3-a]quinazolin-5-yl)-1,2,3,4-tetrahydroquinolin-5-yl)ethynyl)picolinonitrile] | –
19 | 3.29 nM | 9.08 nM | Cc1nnc2nc(N3CCOCc4c(C#Cc5ccnn5C)cccc43)c3c(F)cccc3n12 [Example 214, 1-(6-fluoro-1-methyl-[1,2,4]triazolo[4,3-a]quinazolin-5-yl)-6-((1-methyl-1H-pyrazol-5-yl)ethynyl)-1,2,3,5-tetrahydrobenzo[e][1,4]oxazepine] | –
20 | 9.95 nM | 25.2 nM | Cc1nnc2nc(N3CCCc4c(C#Cc5ccn[nH]5)cccc43)c3c(F)cccc3n12 [Example 215, 5-(5-((1H-pyrazol-5-yl)ethynyl)-3,4-dihydroquinolin-1(2H)-yl)-6-fluoro-1-methyl-[1,2,4]triazolo[4,3-a]quinazoline] | –
21 | 5.42 nM | 24.3 nM | Cc1cccc2c1c(N1CCOCc3c(C#CC4(C)CC4)cccc31)nc1nnc(C)n12 [Example 216, 1-(1,6-dimethyl-[1,2,4]triazolo[4,3-a]quinazolin-5-yl)-6-((1-methylcyclopropyl)ethynyl)-1,2,3,5-tetrahydrobenzo[e][1,4]oxazepine] | –
22 | 16 nM | 31.7 nM | Cc1cccc2c1c(N1CCOCc3c(C#CC(C)(C)C#N)cccc31)nc1nnc(C)n12 [Example 217, 4-(1-(1,6-dimethyl-[1,2,4]triazolo[4,3-a]quinazolin-5-yl)-1,2,3,5-tetrahydrobenzo[e][1,4]oxazepin-6-yl)-2,2-dimethylbut-3-ynenitrile] | –
23 | 33.9 nM | 14.5 nM | Cc1nnc2nc(N3CCOCc4c(C#Cc5cnn(C)c5)cccc43)c3c(F)cccc3n12 [Example 218, 1-(6-fluoro-1-methyl-[1,2,4]triazolo[4,3-a]quinazolin-5-yl)-6-((1-methyl-1H-pyrazol-4-yl)ethynyl)-1,2,3,5-tetrahydrobenzo[e][1,4]oxazepine] | –
24 | 1.3 nM | 11.2 nM | COc1cncc(C#Cc2cccc3c2CCCN3c2nc3nnc(C)n3c3ccc(F)cc23)c1 [Example 219] | –
25 | 0.346 nM | 21.8 nM | Cc1nnc2nc(N3CCCc4c(C#Cc5cnc(C(F)(F)F)nc5)cccc43)c3c(F)cccc3n12 [Example 220, 6-fluoro-1-methyl-5-(5-((2-(trifluoromethyl)pyrimidin-5-yl)ethynyl)-3,4-dihydroquinolin-1(2H)-yl)-[1,2,4]triazolo[4,3-a]quinazoline] | –

Row | Structure (SMILES) | EC50 [1, 2] | IC50 (human DGKα) | EC50 [1, 3]
26 | Cc1nnc2nc(N3CCCc4c(C#CC5(O)CC6CC(C6)C5)cccc43)c3c(F)cccc3n12 (stereo not drawn) [Example 198, 3-((1-(6-fluoro-1-methyl-[1,2,4]triazolo[4,3-a]quinazolin-5-yl)-1,2,3,4-tetrahydroquinolin-5-yl)ethynyl)bicyclo[3.1.1]heptan-3-ol] | – | 10.8 nM | 0.508 nM
27 | Cc1nnc2nc(N3CCCc4c(C#CC5(O)C[C@H]6C[C@H]6C5)cccc43)c3c(F)cccc3n12 (stereo partly drawn) [Example 199, (1R,5S)-3-((1-(6-fluoro-1-methyl-[1,2,4]triazolo[4,3-a]quinazolin-5-yl)-1,2,3,4-tetrahydroquinolin-5-yl)ethynyl)bicyclo[3.1.0]hexan-3-ol] | – | 3.83 nM | 1.62 nM
28 | OC1(C#Cc2cccc3c2CCCN3c2nc3nncn3c3cccc(F)c23)CCCCC1 [Example 202, 1-((1-(6-Fluoro-[1,2,4]triazolo[4,3-a]quinazolin-5-yl)-1,2,3,4-tetrahydroquinolin-5-yl)ethynyl)cyclohexan-1-ol] | – | 3.88 nM | 2.04 nM
29 | Cc1nnc2nc(N3CCCc4c(C#CC5(O)CCCCC5)cccc43)c3c(F)cccc3n12 [Example 206, 1-((1-(6-fluoro-1-methyl-[1,2,4]triazolo[4,3-a]quinazolin-5-yl)-1,2,3,4-tetrahydroquinolin-5-yl)ethynyl)cyclohexan-1-ol] | – | 13.5 nM | 5.07 nM
30 | OC1(C#Cc2cccc3c2CCCN3c2nc3nncn3c3ccc(F)c(F)c23)CCCCC1 [Example 209, 1-[2-[1-(6,7-Difluoro-[1,2,4]triazolo[4,3-a]quinazolin-5-yl)-3,4-dihydro-2H-quinolin-5-yl]ethynyl]cyclohexanol] | – | 2.19 nM | 1.17 nM
